{
  "source": "patent US20020137929A1",
  "about": "“1 - (3-heterocyclylphenyl) isothiourea, -isourea, -guanidine and -amidine herbicidal agents” (Intellectual Property Department, BASF Aktiengesellschaft, priority 1998, published 2002)",
  "key": {"AMBEL (Ragweed, Common) [1]": {"test_system": "AMBEL (Ragweed, Common)", "experiment": "Postemergence herbicidal evaluation", "type": "in vivo, Ambrosia artemisifolia", "summary_of_the_method": "(§1)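 Two-week-old seedlings sprayed with compound in 50/50 acetone/water plus 0.5% TWEEN 20, at about 0.0156 to 0.500 kg/ha, nozzle at 40 psi. Kept in greenhouse; rated visually 4-5 weeks after treatment on a 0-9 scale versus control, repeat tests averaged.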"}, "CASOB (Sicklepod) [2]": {"test_system": "CASOB (Sicklepod)", "experiment": "Postemergence herbicidal evaluation", "type": "in vivo, Cassia obtusifolia", "summary_of_the_method": "as §1"}, "[3]": {"test_system": "CHEAL (Lambsquarters, Common)", "experiment": "Postemergence herbicidal evaluation", "type": "in vivo, Chenopodium album", "summary_of_the_method": "as §1"}, "[4]": {"test_system": "IPOHE (Morningglory, Ivyleaf)", "experiment": "Postemergence herbicidal evaluation", "type": "in vivo, Ipomoea hederacea", "summary_of_the_method": "as §1"}, "ECHCG (Barnyardgrass)": {"test_system": "ECHCG (Barnyardgrass)", "experiment": "Postemergence herbicidal evaluation", "type": "in vivo, Echinochloa crus-galli", "summary_of_the_method": "as §1"}, "[5]": {"test_system": "GLXMAW (Soybean, Williams)", "experiment": "Postemergence herbicidal evaluation", "type": "in vivo, Glycine max, (L.) Merr. cv Williams", "summary_of_the_method": "as §1"}, "[6]": {"test_system": "TRZAWR (Wheat, Winter, cv Riband)", "experiment": "Postemergence herbicidal evaluation", "type": "in vivo, Triticum aestivum", "summary_of_the_method": "as §1"}, "ABUTH (Velvetleaf)": {"test_system": "ABUTH (Velvetleaf)", "experiment": "Preemergence herbicidal evaluation", "type": "in vivo, Abutilon theophrasti", "settings": "rated 4-5 weeks after treatment", "summary_of_the_method": "(§2)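 Greenhouse preemergence test: seed-soil mix sown on ~1 inch soil; aqueous acetone spray at equivalent of ~0.0156–0.500 kg/ha; greenhouse-held and watered; scored 0–9 visually at 4–5 weeks.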"}, "AMBEL (Ragweed, Common) [7]": {"test_system": "AMBEL (Ragweed, Common)", "experiment": "Preemergence herbicidal evaluation", "type": "in vivo, Ambrosia artemisifolia", "settings": "rated 4-5 weeks after treatment", "summary_of_the_method": "as §2"}, "CASOB (Sicklepod) [8]": {"test_system": "CASOB (Sicklepod)", "experiment": "Preemergence herbicidal evaluation", "type": "in vivo, Cassia obtusifolia", "settings": "rated 4-5 weeks after treatment", "summary_of_the_method": "as §2"}, "[9]": {"test_system": "CHEAL (Lambsquarters, Common)", "experiment": "Preemergence herbicidal evaluation", "type": "in vivo, Chenopodium album", "settings": "rated 4-5 weeks after treatment", "summary_of_the_method": "as §2"}, "[10]": {"test_system": "IPOHE (Morningglory, Ivyleaf)", "experiment": "Preemergence herbicidal evaluation", "type": "in vivo, Ipomoea hederacea", "settings": "rated 4-5 weeks after treatment", "summary_of_the_method": "as §2"}, "[11]": {"test_system": "GLXMAW (Soybean, Williams)", "experiment": "Preemergence herbicidal evaluation", "type": "in vivo, Glycine max, (L.) Merr. cv Williams", "settings": "rated 4-5 weeks after treatment", "summary_of_the_method": "as §2"}, "ORYSAT (Rice, Tebonnet)": {"test_system": "ORYSAT (Rice, Tebonnet)", "experiment": "Preemergence herbicidal evaluation", "type": "in vivo, Oryza sativa, (L.) Tebonnet", "settings": "rated 4-5 weeks after treatment", "summary_of_the_method": "as §2"}, "MOOVA (Monochoria)": {"test_system": "MOOVA (Monochoria)", "experiment": "Preemergence weed control under flooded paddy conditions", "type": "in vivo, Monochoria vaginalis", "settings": "rated 3-4 weeks after treatment", "summary_of_the_method": "(§3)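 Seeds or propagules sown in top 0.5 cm of silt loam soil, flooded 1.5 to 3 cm above surface throughout. Compound in 50/50 v/v aqueous/acetone pipetted into flood water at about 0.0313 to 0.500 kg/ha. Visual 0-9 rating versus control after three to four weeks in greenhouse.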"}, "[12]": {"test_system": "SAGPY (Arrowhead (Pygmaea))", "experiment": "Preemergence weed control under flooded paddy conditions", "type": "in vivo, Sagittaria pygmaea", "settings": "rated 3-4 weeks after treatment", "summary_of_the_method": "as §3"}, "[13]": {"settings": "postemergence, rate 0.0625 kg/ha"}},
  "data": [
    {"smiles": "CCCN1C(=O)CSC1=Nc1cc(-n2c(=O)cc(C(F)(F)F)n(C)c2=O)c(F)cc1Cl", "note": "[Compound 171, 3-{4-Chloro-2-fluoro-5-[(4-oxo-3-propyl-2-thiazolidinylidene)amino]phenyl}-1-methyl-6-(trifluoromethyl)-2,4 (1H, 3H)-pyrimidinedione]", "values": [
      {"measurement": "Postemergence herbicidal rating AMBEL", "setting": "AMBEL (Ragweed, Common) [1]; Rate 0.0156 kg/ha", "value": 6.0},
      {"measurement": "Postemergence herbicidal rating AMBEL", "setting": "AMBEL (Ragweed, Common) [1]; Rate 0.0313 kg/ha", "value": 9.0},
      {"measurement": "herbicidal rating AMBEL", "setting": "AMBEL (Ragweed, Common) [1]; [13]", "value": 9.0},
      {"measurement": "Postemergence herbicidal rating CASOB", "setting": "CASOB (Sicklepod) [2]; Rate 0.0156 kg/ha", "value": 2.0},
      {"measurement": "Postemergence herbicidal rating CASOB", "setting": "CASOB (Sicklepod) [2]; Rate 0.0313 kg/ha", "value": 3.0},
      {"measurement": "herbicidal rating CASOB", "setting": "CASOB (Sicklepod) [2]; [13]", "value": 4.0},
      {"measurement": "Postemergence herbicidal rating CHEAL", "setting": "[3]; Rate 0.0156 kg/ha", "value": 7.0},
      {"measurement": "Postemergence herbicidal rating CHEAL", "setting": "[3]; Rate 0.0313 kg/ha", "value": 9.0},
      {"measurement": "herbicidal rating CHEAL", "setting": "[3]; [13]", "value": 9.0},
      {"measurement": "Postemergence herbicidal rating IPOHE", "setting": "[4]; Rate 0.0156 kg/ha", "value": 9.0},
      {"measurement": "Postemergence herbicidal rating IPOHE", "setting": "[4]; Rate 0.0313 kg/ha", "value": 9.0},
      {"measurement": "herbicidal rating IPOHE", "setting": "[4]; [13]", "value": 9.0},
      {"measurement": "Postemergence herbicidal rating ECHCG", "setting": "ECHCG (Barnyardgrass); Rate 0.0156 kg/ha", "value": 4.0},
      {"measurement": "Postemergence herbicidal rating ECHCG", "setting": "ECHCG (Barnyardgrass); Rate 0.0313 kg/ha", "value": 4.0},
      {"measurement": "herbicidal rating ECHCG", "setting": "ECHCG (Barnyardgrass); [13]", "value": 3.0},
      {"measurement": "Postemergence herbicidal rating GLXMAW", "setting": "[5]; Rate 0.0156 kg/ha", "value": 5.5},
      {"measurement": "Postemergence herbicidal rating GLXMAW", "setting": "[5]; Rate 0.0313 kg/ha", "value": 6.5},
      {"measurement": "herbicidal rating GLXMAW", "setting": "[5]; [13]", "value": 7.0},
      {"measurement": "Postemergence herbicidal rating TRZAWR", "setting": "[6]; Rate 0.0156 kg/ha", "value": 4.0},
      {"measurement": "Postemergence herbicidal rating TRZAWR", "setting": "[6]; Rate 0.0313 kg/ha", "value": 5.0},
      {"measurement": "herbicidal rating TRZAWR", "setting": "[6]; [13]", "value": 6.0},
      {"measurement": "Preemergence herbicidal rating ABUTH", "setting": "ABUTH (Velvetleaf); 0.0156 kg/ha", "value": 9.0},
      {"measurement": "Preemergence herbicidal rating ABUTH", "setting": "ABUTH (Velvetleaf); 0.0313 kg/ha", "value": 9.0},
      {"measurement": "Preemergence herbicidal rating ABUTH", "setting": "ABUTH (Velvetleaf); 0.0625 kg/ha", "value": 9.0},
      {"measurement": "Preemergence herbicidal rating ABUTH", "setting": "ABUTH (Velvetleaf); 0.1250 kg/ha", "value": 9.0},
      {"measurement": "Preemergence herbicidal rating ABUTH", "setting": "ABUTH (Velvetleaf); 0.2500 kg/ha", "value": 9.0},
      {"measurement": "Preemergence herbicidal rating AMBEL", "setting": "AMBEL (Ragweed, Common) [7]; 0.0156 kg/ha", "value": 3.0},
      {"measurement": "Preemergence herbicidal rating AMBEL", "setting": "AMBEL (Ragweed, Common) [7]; 0.0313 kg/ha", "value": 4.0},
      {"measurement": "Preemergence herbicidal rating AMBEL", "setting": "AMBEL (Ragweed, Common) [7]; 0.0625 kg/ha", "value": 9.0},
      {"measurement": "Preemergence herbicidal rating AMBEL", "setting": "AMBEL (Ragweed, Common) [7]; 0.1250 kg/ha", "value": 9.0},
      {"measurement": "Preemergence herbicidal rating AMBEL", "setting": "AMBEL (Ragweed, Common) [7]; 0.2500 kg/ha", "value": 9.0},
      {"measurement": "Preemergence herbicidal rating CASOB", "setting": "CASOB (Sicklepod) [8]; 0.0156 kg/ha", "value": 4.0},
      {"measurement": "Preemergence herbicidal rating CASOB", "setting": "CASOB (Sicklepod) [8]; 0.0313 kg/ha", "value": 5.0},
      {"measurement": "Preemergence herbicidal rating CASOB", "setting": "CASOB (Sicklepod) [8]; 0.0625 kg/ha", "value": 2.0},
      {"measurement": "Preemergence herbicidal rating CASOB", "setting": "CASOB (Sicklepod) [8]; 0.1250 kg/ha", "value": 4.0},
      {"measurement": "Preemergence herbicidal rating CASOB", "setting": "CASOB (Sicklepod) [8]; 0.2500 kg/ha", "value": 9.0},
      {"measurement": "Preemergence herbicidal rating CHEAL", "setting": "[9]; 0.0156 kg/ha", "value": 9.0},
      {"measurement": "Preemergence herbicidal rating CHEAL", "setting": "[9]; 0.0313 kg/ha", "value": 9.0},
      {"measurement": "Preemergence herbicidal rating CHEAL", "setting": "[9]; 0.0625 kg/ha", "value": 9.0},
      {"measurement": "Preemergence herbicidal rating CHEAL", "setting": "[9]; 0.1250 kg/ha", "value": 9.0},
      {"measurement": "Preemergence herbicidal rating CHEAL", "setting": "[9]; 0.2500 kg/ha", "value": 9.0},
      {"measurement": "Preemergence herbicidal rating IPOHE", "setting": "[10]; 0.0156 kg/ha", "value": 2.0},
      {"measurement": "Preemergence herbicidal rating IPOHE", "setting": "[10]; 0.0313 kg/ha", "value": 3.0},
      {"measurement": "Preemergence herbicidal rating IPOHE", "setting": "[10]; 0.0625 kg/ha", "value": 9.0},
      {"measurement": "Preemergence herbicidal rating IPOHE", "setting": "[10]; 0.1250 kg/ha", "value": 9.0},
      {"measurement": "Preemergence herbicidal rating IPOHE", "setting": "[10]; 0.2500 kg/ha", "value": 9.0},
      {"measurement": "Preemergence herbicidal rating GLXMAW", "setting": "[11]; 0.0156 kg/ha", "value": 1.0},
      {"measurement": "Preemergence herbicidal rating GLXMAW", "setting": "[11]; 0.0313 kg/ha", "value": 2.0},
      {"measurement": "Preemergence herbicidal rating GLXMAW", "setting": "[11]; 0.0625 kg/ha", "value": 6.0},
      {"measurement": "Preemergence herbicidal rating GLXMAW", "setting": "[11]; 0.1250 kg/ha", "value": 7.0},
      {"measurement": "Preemergence herbicidal rating GLXMAW", "setting": "[11]; 0.2500 kg/ha", "value": 8.0},
      {"measurement": "Preemergence herbicidal rating ORYSAT", "setting": "ORYSAT (Rice, Tebonnet); 0.0156 kg/ha", "value": 2.0},
      {"measurement": "Preemergence herbicidal rating ORYSAT", "setting": "ORYSAT (Rice, Tebonnet); 0.0313 kg/ha", "value": 4.0},
      {"measurement": "Preemergence herbicidal rating ORYSAT", "setting": "ORYSAT (Rice, Tebonnet); 0.0625 kg/ha", "value": 5.0},
      {"measurement": "Preemergence herbicidal rating ORYSAT", "setting": "ORYSAT (Rice, Tebonnet); 0.1250 kg/ha", "value": 6.0},
      {"measurement": "Preemergence herbicidal rating ORYSAT", "setting": "ORYSAT (Rice, Tebonnet); 0.2500 kg/ha", "value": 8.0},
      {"measurement": "herbicidal effect rating, MOOVA", "setting": "MOOVA (Monochoria); 0.0313 kg/ha", "value": 9.0},
      {"measurement": "herbicidal effect rating, MOOVA", "setting": "MOOVA (Monochoria); 0.0625 kg/ha", "value": 9.0},
      {"measurement": "herbicidal effect rating, MOOVA", "setting": "MOOVA (Monochoria); 0.1250 kg/ha", "value": 9.0},
      {"measurement": "herbicidal effect rating, MOOVA", "setting": "MOOVA (Monochoria); 0.2500 kg/ha", "value": 9.0},
      {"measurement": "herbicidal effect rating, SAGPY", "setting": "[12]; 0.0313 kg/ha", "value": 6.0},
      {"measurement": "herbicidal effect rating, SAGPY", "setting": "[12]; 0.0625 kg/ha", "value": 7.0},
      {"measurement": "herbicidal effect rating, SAGPY", "setting": "[12]; 0.1250 kg/ha", "value": 8.0},
      {"measurement": "herbicidal effect rating, SAGPY", "setting": "[12]; 0.2500 kg/ha", "value": 9.0}
    ]}
  ]
}
